From ChEMBL document CHEMBL1201862, “PubChem BioAssay data set” (2004)
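Dose response: 5 concentrations. Exposure: 48 h. Format: 96-well plates. Endpoint: linear interpolation; highest concentration if not reached. GI50 = concentration required for 50% inhibition of growth.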 The source made the active and inactive calls. Rule as the data show it: active = GI50 up to about 1.1 µM and inactive = higher.

Legend:
Experiment in all cases: DTP human tumour cell line panel, 48 h
COLO 205 = test system: COLO 205
HCT-116 = test system: HCT-116
HL-60 = test system: HL-60
HT-29 = test system: HT-29
K562 = test system: K562
LOX IMVI = test system: LOX IMVI
MDA-N = test system: MDA-N
MOLT-4 = test system: MOLT-4
NCI-H460 = test system: NCI-H460
OVCAR-4 = test system: OVCAR-4
SF-268 = test system: SF-268
SF-295 = test system: SF-295
SF-539 = test system: SF-539
SW-620 = test system: SW-620
TK-10 = test system: TK-10
U-251 = test system: U-251
UACC-257 = test system: UACC-257
KM-20L2 = test system: KM-20L2
M19-MEL = test system: M19-MEL
LXFL 529 = test system: LXFL 529

Measured: GI50

CC(=O)NCCC1CN(C(=O)/C=C\C#C[Si](C)(C)C)c2ccccc21 (stereo not drawn)
inactive: COLO 205 4.88 µM | HCT-116 > 10 µM | HL-60 23.3 µM | HT-29 20.3 µM | K562 15.3 µM | LOX IMVI 11.9 µM | MDA-N 13.5 µM | MOLT-4 17.3 µM | NCI-H460 28.8 µM | OVCAR-4 18.9 µM | SF-268 48.2 µM | SF-295 21.5 µM | SF-539 20.3 µM | SW-620 35.2 µM | TK-10 23 µM | U-251 > 10 µM | UACC-257 2.55 µM

CC1NC(=O)CC(c2ccccc2)N(N=O)C1c1ccccc1 (stereo not drawn)
inactive: COLO 205 26.6 µM | HCT-116 37.1 µM | HL-60 24.8 µM | HT-29 29.7 µM | K562 28 µM | KM-20L2 21.4 µM | LOX IMVI 37.9 µM | M19-MEL 55.7 µM | MOLT-4 31.4 µM | NCI-H460 25.8 µM | OVCAR-4 19.9 µM | SF-268 31.8 µM | SF-295 30.7 µM | SF-539 23.4 µM | SW-620 20.6 µM | U-251 39.6 µM | UACC-257 55.6 µM

CC1=NOC(=O)C1/N=N/c1ccc(Br)c(C)c1 (stereo not drawn)
inactive: COLO 205 25 µM | HCT-116 17.7 µM | HL-60 8.39 µM | HT-29 36.2 µM | K562 13 µM | KM-20L2 33.7 µM | LXFL 529 15.5 µM | M19-MEL 18.6 µM | MOLT-4 18.4 µM | NCI-H460 23.9 µM | OVCAR-4 15.2 µM | SF-268 22.1 µM | SF-295 23 µM | SF-539 20.2 µM | SW-620 17.6 µM | TK-10 18.6 µM | U-251 18.5 µM | UACC-257 17.5 µM

COc1ccc(/C=N/n2cnc3c(c2=O)S/C(=C2/SC(=S)N(c4ccc(C)cc4)C2=O)N3c2ccccc2)cc1
inactive: COLO 205 > 100 µM | HCT-116 56 µM | HL-60 58.5 µM | HT-29 > 100 µM | K562 > 10 µM | KM-20L2 > 100 µM | LOX IMVI > 100 µM | LXFL 529 > 100 µM | M19-MEL > 100 µM | MOLT-4 > 10 µM | NCI-H460 68.7 µM | OVCAR-4 17.7 µM | SF-268 29.4 µM | SF-295 11.6 µM | SF-539 30.5 µM | SW-620 > 100 µM | TK-10 > 100 µM

NC12CC3CC(C1)CC(Cl)(C3)C2
inactive: COLO 205 > 100 µM | HCT-116 > 100 µM | HL-60 > 100 µM | HT-29 > 100 µM | K562 > 100 µM | KM-20L2 > 100 µM | LOX IMVI > 100 µM | LXFL 529 > 100 µM | M19-MEL > 100 µM | MOLT-4 > 100 µM | NCI-H460 > 100 µM | SF-539 > 100 µM | SW-620 > 100 µM | TK-10 > 100 µM | U-251 > 100 µM | UACC-257 > 100 µM

O=C(CCC(=O)C1CCC/C1=N/O)Nc1ccc(Cl)cc1 (stereo not drawn)
inactive: COLO 205 > 100 µM | HCT-116 > 100 µM | HL-60 > 100 µM | HT-29 > 100 µM | K562 > 100 µM | KM-20L2 > 100 µM | LXFL 529 > 100 µM | M19-MEL > 100 µM | MOLT-4 > 100 µM | NCI-H460 > 100 µM | OVCAR-4 > 100 µM | SF-268 > 100 µM | SF-295 > 100 µM | SF-539 > 100 µM | SW-620 > 100 µM | TK-10 > 100 µM | U-251 > 100 µM | UACC-257 > 100 µM

CC(=O)OCC1OC(n2cc([N+](=O)[O-])c(=O)[nH]c2=O)C(OC(C)=O)C(OC(C)=O)C1OC(C)=O (stereo not drawn)
inactive: COLO 205 > 100 µM | HCT-116 > 100 µM | HL-60 > 100 µM | HT-29 > 100 µM | K562 > 100 µM | KM-20L2 > 100 µM | LOX IMVI > 100 µM | LXFL 529 > 100 µM | M19-MEL > 100 µM | MOLT-4 > 100 µM | NCI-H460 > 100 µM | OVCAR-4 > 100 µM | SF-268 > 100 µM | SF-295 > 100 µM | SW-620 > 100 µM | TK-10 > 100 µM | U-251 > 100 µM | UACC-257 > 100 µM

C=C1C(=O)C23C(O)CC4C5(C)CCCC4(C(O)OC5)C2C(OC(C)=O)CC1C3O (stereo not drawn)
inactive: COLO 205 5.16 µM | HCT-116 5.11 µM | HT-29 5 µM | K562 2.58 µM | KM-20L2 8.95 µM | LOX IMVI 13.5 µM | LXFL 529 2.61 µM | M19-MEL 13.8 µM | MOLT-4 3.66 µM | NCI-H460 4.97 µM | OVCAR-4 14.3 µM | SF-268 13.3 µM | SF-295 21.5 µM | SF-539 10.9 µM | SW-620 2.91 µM | TK-10 10.9 µM | U-251 16.6 µM
